Results reported in article PMC8632988, “Inhibition of SYK and cSrc kinases can protect bone and cartilage in preclinical models of osteoarthritis and rheumatoid arthritis” (Scientific Reports, 2021).

Experiments:
STK39/STLK3 = target: T1, STK39/STLK3 (Homo sapiens, UniProt Q9UEW8); test: Kinase selectivity profile assay; assay type: biochemical; conditions: 500 nM; relative to DMSO; read-out: Residual enzymatic activity
T1 construct: purchased Reaction Biology Corporation
Experimental: (§1) The activity of MT-SYK-03 against cSrc kinase and selectivity profile towards other 341 kinases was determined at Reaction Biology Corporation (Malvern, PA, USA) using the standard kinase assay protocol. […]; unbound phosphate was removed by extensive washing of filters in phosphoric acid. Kinase activity data was expressed as the percent remaining kinase activity in test samples compared to vehicle (dimethyl sulfoxide) reactions based on the radioactivity of reaction products (see Table S2). Experiment was replicated twice.

P38g = target: T2, P38g (Homo sapiens, UniProt P53778); test: Kinase selectivity profile assay; assay type: biochemical; conditions: 500 nM; relative to DMSO; read-out: Residual enzymatic activity
T2 construct: purchased Reaction Biology Corporation
Experimental: as §1

ERBB4/HER4 = target: T3, ERBB4/HER4 (Homo sapiens, UniProt Q15303); test: Kinase selectivity profile assay; assay type: biochemical; conditions: 500 nM; relative to DMSO; read-out: Residual enzymatic activity
T3 construct: purchased Reaction Biology Corporation
Experimental: as §1

CDK5/p25 = target: T4, CDK5/p25 (Homo sapiens, UniProt Q00535); test: Kinase selectivity profile assay; assay type: biochemical; conditions: 500 nM; relative to DMSO; read-out: Residual enzymatic activity
T4 construct: purchased Reaction Biology Corporation
Experimental: as §1

CDK2/cyclin E = target: T5, CDK2/cyclin E (Homo sapiens, UniProt P24941); test: Kinase selectivity profile assay; assay type: biochemical; conditions: 500 nM; relative to DMSO; read-out: Residual enzymatic activity
T5 construct: purchased Reaction Biology Corporation
Experimental: as §1

CHK1 = target: T6, CHK1 (Homo sapiens, UniProt O14757); test: Kinase selectivity profile assay; assay type: biochemical; conditions: 500 nM; relative to DMSO; read-out: Residual enzymatic activity
T6 construct: purchased Reaction Biology Corporation
Experimental: as §1

BRK = target: T7, BRK (Homo sapiens, UniProt Q13882); test: Kinase selectivity profile assay; assay type: biochemical; conditions: 500 nM; relative to DMSO; read-out: Residual enzymatic activity
T7 construct: purchased Reaction Biology Corporation
Experimental: as §1

CDK6/cyclin D1 = target: T8, CDK6/cyclin D1 (Homo sapiens, UniProt Q00534); test: Kinase selectivity profile assay; assay type: biochemical; conditions: 500 nM; relative to DMSO; read-out: Residual enzymatic activity
T8 construct: purchased Reaction Biology Corporation
Experimental: as §1

NEK5 = target: T9, NEK5 (Homo sapiens, UniProt Q6P3R8); test: Kinase selectivity profile assay; assay type: biochemical; conditions: 500 nM; relative to DMSO; read-out: Residual enzymatic activity
T9 construct: purchased Reaction Biology Corporation
Experimental: as §1

CLK3 = target: T10, CLK3 (Homo sapiens, UniProt P49761); test: Kinase selectivity profile assay; assay type: biochemical; conditions: 500 nM; relative to DMSO; read-out: Residual enzymatic activity
T10 construct: purchased Reaction Biology Corporation
Experimental: as §1

FLT4/VEGFR3 = target: T11, FLT4/VEGFR3 (Homo sapiens, UniProt P35916); test: Kinase selectivity profile assay; assay type: biochemical; conditions: 500 nM; relative to DMSO; read-out: Residual enzymatic activity
T11 construct: purchased Reaction Biology Corporation (assay service)
Experimental: as §1

CHK2 = target: T12, CHK2 (Homo sapiens, UniProt O96017); test: Kinase selectivity profile assay; assay type: biochemical; conditions: 500 nM; relative to DMSO; read-out: Residual enzymatic activity
T12 construct: purchased Reaction Biology Corporation
Experimental: as §1

RSK1 = target: T13, RSK1 (Homo sapiens, UniProt Q15418); test: Kinase selectivity profile assay; assay type: biochemical; conditions: 500 nM; relative to DMSO; read-out: Residual enzymatic activity
T13 construct: purchased Reaction Biology Corporation
Experimental: as §1

HIPK1 = target: T14, HIPK1 (Homo sapiens, UniProt Q86Z02); test: Kinase selectivity profile assay; assay type: biochemical; conditions: 500 nM; relative to DMSO; read-out: Residual enzymatic activity
T14 construct: purchased Reaction Biology Corporation
Experimental: as §1

ERK5/MAPK7 = target: T15, ERK5/MAPK7 (Homo sapiens, UniProt Q13164); test: Kinase selectivity profile assay; assay type: biochemical; conditions: 500 nM; relative to DMSO; read-out: Residual enzymatic activity
T15 construct: purchased Reaction Biology Corporation
Experimental: as §1

PAK4 = target: T16, PAK4 (Homo sapiens, UniProt O96013); test: Kinase selectivity profile assay; assay type: biochemical; conditions: 500 nM; relative to DMSO; read-out: Residual enzymatic activity
T16 construct: purchased Reaction Biology Corporation
Experimental: as §1

IKKe/IKBKE = target: T17, IKKe/IKBKE (Homo sapiens, UniProt Q14164); test: Kinase selectivity profile assay; assay type: biochemical; conditions: 500 nM; relative to DMSO; read-out: Residual enzymatic activity
T17 construct: purchased Reaction Biology Corporation
Experimental: as §1

MLCK2/MYLK2 = target: T18, MLCK2/MYLK2 (Homo sapiens, UniProt Q9H1R3); test: Kinase selectivity profile assay; assay type: biochemical; conditions: 500 nM; relative to DMSO; read-out: Residual enzymatic activity
T18 construct: purchased Reaction Biology Corporation
Experimental: as §1

TNK1 = target: T19, TNK1 (Homo sapiens, UniProt Q13470); test: Kinase selectivity profile assay; assay type: biochemical; conditions: 500 nM; relative to DMSO; read-out: Residual enzymatic activity
T19 construct: purchased Reaction Biology Corporation
Experimental: as §1

LIMK2 = target: T20, LIMK2 (Homo sapiens, UniProt P53671); test: Kinase selectivity profile assay; assay type: biochemical; conditions: 500 nM; relative to DMSO; read-out: Residual enzymatic activity
T20 construct: purchased Reaction Biology Corporation
Experimental: as §1

SGK1 = target: T21, SGK1 (Homo sapiens, UniProt O00141); test: Kinase selectivity profile assay; assay type: biochemical; conditions: 500 nM; relative to DMSO; read-out: Residual enzymatic activity
T21 construct: purchased Reaction Biology Corporation
Experimental: as §1

LATS2 = target: T22, LATS2 (Homo sapiens, UniProt Q9NRM7); test: Kinase selectivity profile assay; assay type: biochemical; conditions: 500 nM; relative to DMSO; read-out: Residual enzymatic activity
T22 construct: purchased Reaction Biology Corporation
Experimental: as §1

DYRK1B = target: T23, DYRK1B (Homo sapiens, UniProt Q9Y463); test: Kinase selectivity profile assay; assay type: biochemical; conditions: 500 nM; relative to DMSO; read-out: Residual enzymatic activity
T23 construct: purchased Reaction Biology Corporation
Experimental: as §1

IRAK1 = target: T24, IRAK1 (Homo sapiens, UniProt P51617); test: Kinase selectivity profile assay; assay type: biochemical; conditions: 500 nM; relative to DMSO; read-out: Residual enzymatic activity
T24 construct: purchased Reaction Biology Corporation
Experimental: as §1

CDK2/cyclin A = target: T25, CDK2/cyclin A (Homo sapiens, UniProt P24941); test: Kinase selectivity profile assay; assay type: biochemical; conditions: 500 nM; relative to DMSO; read-out: Residual enzymatic activity
T25 construct: purchased Reaction Biology Corporation
Experimental: as §1

MST3/STK24 = target: T26, MST3/STK24 (Homo sapiens, UniProt Q9Y6E0); test: Kinase selectivity profile assay; assay type: biochemical; conditions: 500 nM; relative to DMSO; read-out: Residual enzymatic activity
T26 construct: purchased Reaction Biology Corporation
Experimental: as §1

DCAMKL2 = target: T27, DCAMKL2 (Homo sapiens, UniProt Q8N568); test: Kinase selectivity profile assay; assay type: biochemical; conditions: 500 nM; relative to DMSO; read-out: Residual enzymatic activity
T27 construct: purchased Reaction Biology Corporation
Experimental: as §1

NEK3 = target: T28, NEK3 (Homo sapiens, UniProt P51956); test: Kinase selectivity profile assay; assay type: biochemical; conditions: 500 nM; relative to DMSO; read-out: Residual enzymatic activity
T28 construct: purchased Reaction Biology Corporation
Experimental: as §1

CAMK4 = target: T29, CAMK4 (Homo sapiens, UniProt Q16566); test: Kinase selectivity profile assay; assay type: biochemical; conditions: 500 nM; relative to DMSO; read-out: Residual enzymatic activity
T29 construct: purchased Reaction Biology Corporation
Experimental: as §1

CK1d = target: T30, CK1d (Homo sapiens, UniProt P48730); test: Kinase selectivity profile assay; assay type: biochemical; conditions: 500 nM; relative to DMSO; read-out: Residual enzymatic activity
T30 construct: purchased Reaction Biology Corporation
Experimental: as §1

DMPK2 = target: T31, DMPK2 (Homo sapiens, UniProt Q6DT37); test: Kinase selectivity profile assay; assay type: biochemical; conditions: read-out: Residual enzymatic activity
T31 construct: purchased Reaction Biology Corporation
Experimental: as §1

BRSK1 = target: T32, BRSK1 (Homo sapiens, UniProt Q8TDC3); test: Kinase selectivity profile assay; assay type: biochemical; conditions: 500 nM; relative to DMSO; read-out: Residual enzymatic activity
T32 construct: purchased Reaction Biology Corporation
Experimental: as §1

ALK5/TGFBR1 = target: T33, ALK5/TGFBR1 (Homo sapiens, UniProt P36897); test: Kinase selectivity profile assay; assay type: biochemical; conditions: 500 nM; relative to DMSO; read-out: Residual enzymatic activity
T33 construct: purchased Reaction Biology Corporation
Experimental: as §1

OSR1/OXSR1 = target: T34, OSR1/OXSR1 (Homo sapiens, UniProt O95747); test: Kinase selectivity profile assay; assay type: biochemical; conditions: 500 nM; relative to DMSO; read-out: Residual enzymatic activity
T34 construct: purchased Reaction Biology Corporation
Experimental: as §1

MSK2/RPS6KA4 = target: T35, MSK2/RPS6KA4 (Homo sapiens, UniProt O75676); test: Kinase selectivity profile assay; assay type: biochemical; conditions: 500 nM; relative to DMSO; read-out: Residual enzymatic activity
T35 construct: purchased Reaction Biology Corporation
Experimental: as §1

PHKg2 = target: T36, PHKg2 (Homo sapiens, UniProt P15735); test: Kinase selectivity profile assay; assay type: biochemical; conditions: 500 nM; relative to DMSO; read-out: Residual enzymatic activity
T36 construct: purchased Reaction Biology Corporation
Experimental: as §1

RSK2 = target: T37, RSK2 (Homo sapiens, UniProt P51812); test: Kinase selectivity profile assay; assay type: biochemical; conditions: 500 nM; relative to DMSO; read-out: Residual enzymatic activity
T37 construct: purchased Reaction Biology Corporation
Experimental: as §1

TYRO3/SKY = target: T38, TYRO3/SKY (Homo sapiens, UniProt Q06418); test: Kinase selectivity profile assay; assay type: biochemical; conditions: 500 nM; relative to DMSO; read-out: Residual enzymatic activity
T38 construct: purchased Reaction Biology Corporation
Experimental: as §1

HIPK4 = target: T39, HIPK4 (Homo sapiens, UniProt Q8NE63); test: Kinase selectivity profile assay; assay type: biochemical; conditions: 500 nM; relative to DMSO; read-out: Residual enzymatic activity
T39 construct: purchased Reaction Biology Corporation
Experimental: as §1

341 kinases = test: Kinase selectivity profile, whole panel; assay type: biochemical, human; conditions: 500 nM
Experimental: as §1

T24 sequence (P51617 whole entry): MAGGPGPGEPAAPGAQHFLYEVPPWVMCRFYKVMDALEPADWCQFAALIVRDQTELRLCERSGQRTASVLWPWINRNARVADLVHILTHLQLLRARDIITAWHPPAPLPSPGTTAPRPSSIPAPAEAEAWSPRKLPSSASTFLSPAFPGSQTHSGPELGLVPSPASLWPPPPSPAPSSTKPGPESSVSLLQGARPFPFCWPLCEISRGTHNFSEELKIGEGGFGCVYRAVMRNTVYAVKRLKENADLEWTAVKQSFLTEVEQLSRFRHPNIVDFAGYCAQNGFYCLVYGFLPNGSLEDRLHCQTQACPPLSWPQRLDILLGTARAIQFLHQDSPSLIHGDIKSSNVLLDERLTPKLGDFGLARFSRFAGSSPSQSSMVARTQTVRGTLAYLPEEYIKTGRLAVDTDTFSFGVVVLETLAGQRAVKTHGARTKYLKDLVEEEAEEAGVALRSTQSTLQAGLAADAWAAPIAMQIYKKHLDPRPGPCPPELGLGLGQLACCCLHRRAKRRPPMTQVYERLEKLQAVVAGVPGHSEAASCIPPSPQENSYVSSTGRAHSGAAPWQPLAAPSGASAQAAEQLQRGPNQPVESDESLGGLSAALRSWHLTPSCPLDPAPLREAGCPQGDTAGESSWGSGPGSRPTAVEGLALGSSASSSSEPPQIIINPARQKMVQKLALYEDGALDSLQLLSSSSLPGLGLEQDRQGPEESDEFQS
T15 sequence (Q13164 whole entry): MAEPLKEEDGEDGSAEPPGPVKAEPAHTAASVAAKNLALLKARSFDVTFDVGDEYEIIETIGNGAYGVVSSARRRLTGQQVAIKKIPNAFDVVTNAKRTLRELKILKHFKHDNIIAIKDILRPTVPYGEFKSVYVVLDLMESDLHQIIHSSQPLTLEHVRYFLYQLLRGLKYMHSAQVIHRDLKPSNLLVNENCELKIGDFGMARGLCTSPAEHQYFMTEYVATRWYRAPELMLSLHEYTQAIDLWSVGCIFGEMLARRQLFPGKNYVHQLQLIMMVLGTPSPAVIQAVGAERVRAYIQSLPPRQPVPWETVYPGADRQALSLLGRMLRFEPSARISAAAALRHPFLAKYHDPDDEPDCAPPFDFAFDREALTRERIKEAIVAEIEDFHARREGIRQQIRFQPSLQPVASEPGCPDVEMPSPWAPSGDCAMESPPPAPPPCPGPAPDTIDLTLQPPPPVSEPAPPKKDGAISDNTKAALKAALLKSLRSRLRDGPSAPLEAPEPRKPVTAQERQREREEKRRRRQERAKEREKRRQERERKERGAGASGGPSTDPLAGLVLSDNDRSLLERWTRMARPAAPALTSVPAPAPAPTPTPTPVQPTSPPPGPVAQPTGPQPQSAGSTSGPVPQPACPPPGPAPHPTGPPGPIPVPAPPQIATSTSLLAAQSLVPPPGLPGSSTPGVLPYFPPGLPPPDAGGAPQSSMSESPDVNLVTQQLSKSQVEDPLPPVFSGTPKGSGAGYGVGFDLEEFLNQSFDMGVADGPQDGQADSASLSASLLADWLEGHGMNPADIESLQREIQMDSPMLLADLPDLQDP
T21 sequence (O00141 whole entry): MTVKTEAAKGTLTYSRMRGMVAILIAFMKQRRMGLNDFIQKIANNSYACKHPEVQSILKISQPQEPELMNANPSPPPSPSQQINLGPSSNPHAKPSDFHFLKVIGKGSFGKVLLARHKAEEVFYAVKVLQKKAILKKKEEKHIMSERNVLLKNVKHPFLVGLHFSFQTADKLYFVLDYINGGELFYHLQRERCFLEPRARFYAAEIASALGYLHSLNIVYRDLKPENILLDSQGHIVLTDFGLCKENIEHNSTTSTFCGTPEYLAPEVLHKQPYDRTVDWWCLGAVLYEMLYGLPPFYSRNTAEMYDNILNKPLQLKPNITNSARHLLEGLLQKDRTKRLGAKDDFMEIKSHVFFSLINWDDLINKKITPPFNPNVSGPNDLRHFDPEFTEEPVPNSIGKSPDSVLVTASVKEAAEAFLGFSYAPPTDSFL
T17 sequence (Q14164 whole entry): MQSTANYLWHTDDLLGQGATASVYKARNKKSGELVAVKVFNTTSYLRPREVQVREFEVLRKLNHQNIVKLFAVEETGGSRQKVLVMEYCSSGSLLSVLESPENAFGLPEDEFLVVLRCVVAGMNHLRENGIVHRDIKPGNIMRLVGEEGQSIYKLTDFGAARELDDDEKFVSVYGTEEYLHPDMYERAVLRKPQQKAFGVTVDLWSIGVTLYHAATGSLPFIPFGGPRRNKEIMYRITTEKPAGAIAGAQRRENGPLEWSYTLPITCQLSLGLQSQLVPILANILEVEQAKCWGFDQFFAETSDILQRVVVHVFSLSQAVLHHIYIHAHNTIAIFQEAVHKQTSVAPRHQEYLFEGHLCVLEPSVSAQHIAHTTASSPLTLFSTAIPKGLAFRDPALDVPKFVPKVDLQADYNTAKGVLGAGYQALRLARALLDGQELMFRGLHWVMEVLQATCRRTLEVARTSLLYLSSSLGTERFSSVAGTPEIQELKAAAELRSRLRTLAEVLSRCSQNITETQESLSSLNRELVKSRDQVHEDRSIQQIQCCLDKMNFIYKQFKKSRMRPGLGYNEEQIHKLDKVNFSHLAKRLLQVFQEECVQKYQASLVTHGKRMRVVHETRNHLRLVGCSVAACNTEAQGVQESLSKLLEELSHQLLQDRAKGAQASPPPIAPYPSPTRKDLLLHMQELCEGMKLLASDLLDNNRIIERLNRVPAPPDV
T4 sequence (Q00535 whole entry): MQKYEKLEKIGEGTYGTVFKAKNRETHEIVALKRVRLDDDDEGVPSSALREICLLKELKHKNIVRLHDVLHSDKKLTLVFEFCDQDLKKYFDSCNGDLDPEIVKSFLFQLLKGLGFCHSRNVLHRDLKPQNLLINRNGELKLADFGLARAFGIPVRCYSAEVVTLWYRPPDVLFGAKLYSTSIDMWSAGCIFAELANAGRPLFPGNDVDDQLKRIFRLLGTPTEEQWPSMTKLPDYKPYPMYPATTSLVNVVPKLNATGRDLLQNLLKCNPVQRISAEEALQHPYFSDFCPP
T4 sequence (Q15078 99-307 partner limits assumed): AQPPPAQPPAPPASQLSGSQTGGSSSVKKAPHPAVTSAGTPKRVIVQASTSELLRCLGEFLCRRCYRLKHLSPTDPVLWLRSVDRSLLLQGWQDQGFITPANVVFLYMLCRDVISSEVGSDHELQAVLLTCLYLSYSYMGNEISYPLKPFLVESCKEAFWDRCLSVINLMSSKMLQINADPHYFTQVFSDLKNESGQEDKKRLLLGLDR
T38 sequence (Q06418 41-890): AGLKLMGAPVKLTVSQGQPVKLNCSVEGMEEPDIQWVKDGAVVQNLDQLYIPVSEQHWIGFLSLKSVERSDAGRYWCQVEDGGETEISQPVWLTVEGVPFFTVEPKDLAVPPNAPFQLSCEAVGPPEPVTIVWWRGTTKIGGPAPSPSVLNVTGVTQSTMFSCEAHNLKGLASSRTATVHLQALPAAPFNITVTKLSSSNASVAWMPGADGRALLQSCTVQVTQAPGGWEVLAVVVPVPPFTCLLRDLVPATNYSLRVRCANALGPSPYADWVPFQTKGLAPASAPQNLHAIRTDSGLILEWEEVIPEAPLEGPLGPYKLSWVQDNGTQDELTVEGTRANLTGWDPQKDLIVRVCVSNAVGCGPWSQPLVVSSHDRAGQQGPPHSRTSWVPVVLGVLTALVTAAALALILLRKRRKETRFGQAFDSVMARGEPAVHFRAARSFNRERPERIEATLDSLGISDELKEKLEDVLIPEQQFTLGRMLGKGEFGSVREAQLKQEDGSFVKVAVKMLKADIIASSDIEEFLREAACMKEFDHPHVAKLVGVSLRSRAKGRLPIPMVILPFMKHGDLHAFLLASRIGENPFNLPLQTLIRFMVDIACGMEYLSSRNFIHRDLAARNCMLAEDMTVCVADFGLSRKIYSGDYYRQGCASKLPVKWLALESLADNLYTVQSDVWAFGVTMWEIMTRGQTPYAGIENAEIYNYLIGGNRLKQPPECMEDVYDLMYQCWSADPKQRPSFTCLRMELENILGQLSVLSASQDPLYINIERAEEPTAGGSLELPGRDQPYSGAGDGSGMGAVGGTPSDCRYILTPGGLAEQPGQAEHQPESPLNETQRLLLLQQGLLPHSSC
T13 sequence (Q15418 whole entry): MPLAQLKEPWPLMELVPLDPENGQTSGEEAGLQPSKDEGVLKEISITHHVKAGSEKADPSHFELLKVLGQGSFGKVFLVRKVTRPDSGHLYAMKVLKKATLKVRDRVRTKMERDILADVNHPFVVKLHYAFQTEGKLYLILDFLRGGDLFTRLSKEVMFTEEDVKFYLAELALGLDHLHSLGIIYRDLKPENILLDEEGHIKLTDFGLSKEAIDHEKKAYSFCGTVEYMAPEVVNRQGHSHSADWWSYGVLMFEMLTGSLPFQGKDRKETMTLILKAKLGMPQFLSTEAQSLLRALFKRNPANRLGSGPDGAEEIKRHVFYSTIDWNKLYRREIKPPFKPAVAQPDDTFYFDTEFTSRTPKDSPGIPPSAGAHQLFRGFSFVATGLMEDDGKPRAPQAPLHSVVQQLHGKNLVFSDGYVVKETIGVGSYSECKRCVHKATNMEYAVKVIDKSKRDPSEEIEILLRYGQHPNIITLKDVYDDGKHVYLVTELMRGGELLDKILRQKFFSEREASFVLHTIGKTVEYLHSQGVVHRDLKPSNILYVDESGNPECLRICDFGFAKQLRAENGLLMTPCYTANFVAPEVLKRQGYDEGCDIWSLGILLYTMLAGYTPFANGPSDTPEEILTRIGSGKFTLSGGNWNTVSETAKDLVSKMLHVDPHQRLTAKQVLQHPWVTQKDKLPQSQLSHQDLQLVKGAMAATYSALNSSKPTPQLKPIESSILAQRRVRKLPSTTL

COc1cc(Nc2ncc(F)c(Nc3ccc4c(n3)NC(=O)C(C)(C)O4)n2)cc(OC)c1OC [R406, reference compound]
remaining activity at 0.5 µM (STK39/STLK3): 107%
remaining activity at 0.5 µM (P38g): 90.5%
remaining activity at 0.5 µM (ERBB4/HER4): 68.2%
remaining activity at 0.5 µM (CDK5/p25): 79.4%
remaining activity at 0.5 µM (CDK2/cyclin E): 60%
remaining activity at 0.5 µM (CHK1): 78.6%
remaining activity at 0.5 µM (BRK): 27.6%
remaining activity at 0.5 µM (CDK6/cyclin D1): 93.4%
remaining activity at 0.5 µM (NEK5): 27.1%
remaining activity at 0.5 µM (CLK3): 89.4%
remaining activity at 0.5 µM (FLT4/VEGFR3): 4.9%
remaining activity at 0.5 µM (CHK2): 50.7%
remaining activity at 0.5 µM (RSK1): 66.9%
remaining activity at 0.5 µM (HIPK1): 90.8%
remaining activity at 0.5 µM (ERK5/MAPK7): 88.2%
remaining activity at 0.5 µM (PAK4): 53.9%
remaining activity at 0.5 µM (IKKe/IKBKE): 16.1%
remaining activity at 0.5 µM (MLCK2/MYLK2): 89.2%
remaining activity at 0.5 µM (TNK1): 9.6%
remaining activity at 0.5 µM (LIMK2): 77.5%
remaining activity at 0.5 µM (SGK1): 109%
remaining activity at 0.5 µM (LATS2): 51.2%
remaining activity at 0.5 µM (DYRK1B): 72.5%
remaining activity at 0.5 µM (IRAK1): 13.5%
remaining activity at 0.5 µM (CDK2/cyclin A): 47.6%
remaining activity at 0.5 µM (MST3/STK24): 95.6%
remaining activity at 0.5 µM (DCAMKL2): 91.8%
remaining activity at 0.5 µM (NEK3): 19.2%
remaining activity at 0.5 µM (CAMK4): 120%
remaining activity at 0.5 µM (CK1d): 78.7%
remaining activity at 0.5 µM (DMPK2): 57.5%
remaining activity at 0.5 µM (BRSK1): 61.6%
remaining activity at 0.5 µM (ALK5/TGFBR1): 108%
remaining activity at 0.5 µM (OSR1/OXSR1): 97.2%
remaining activity at 0.5 µM (MSK2/RPS6KA4): 97.7%
remaining activity at 0.5 µM (PHKg2): 93.4%
remaining activity at 0.5 µM (RSK2): 56.9%
remaining activity at 0.5 µM (TYRO3/SKY): 94.6%
remaining activity at 0.5 µM (HIPK4): 92.9%
Number of kinases inhibited by more than 50% (341 kinases): 104 kinases
Number of kinases inhibited by more than 80% (341 kinases): 50 kinases
Number of kinases inhibited by more than 90% (341 kinases): 26 kinases
